The assay relates to NHBE cells. Briefly: Biolog metabolic array: substrate use by NHBE cells with or without CA09 infection. It is filed as cell-based, human.
Where [1] appears, read: Virus: CA09-infected NHBE cells, MOI 1, Biolog PMM2.
Where [2] appears, read: Control (uninfected) NHBE cells.
Where [3] appears, read: Virus (CA09-infected NHBE cells, MOI 1).

Turning to `O=C[C@H](O)[C@@H](O)[C@H](O)[C@H](O)CO` [D-(+)-Glucose], under setting [1], the “590 nm absorbance normalized to zero hour (substrate use), 1 hr” value was found to be 0.82; the “590 nm absorbance normalized to zero hour (substrate use), 2 hr” value (shortened to “590 nm absorbance normalized … 2 hr”) was 1.44; the “590 nm absorbance normalized to zero hour (substrate use), 3 hr” value (“590 nm absorbance normalized … 3 hr” below) is recorded as 1.76; the “590 nm absorbance normalized to zero hour (substrate use), 4 hr” value (from here on “590 nm absorbance normalized … 4 hr”) is listed as 1.96. In addition, under setting [1], the “590 nm absorbance normalized to zero hour (substrate use), 5 hr” value was determined as 2.64; the “590 nm absorbance normalized to zero hour (substrate use), 6 hr” value (shortened to “590 nm absorbance normalized … 6 hr”) is on record as 2.91; the “590 nm absorbance normalized to zero hour (substrate use), 7 hr” value was 3.23; the “590 nm absorbance normalized to zero hour (substrate use), 8 hr” value (“590 nm absorbance normalized … 8 hr” below) turned out to be 3.59. For the same compound, under setting [1], the “590 nm absorbance normalized to zero hour (substrate use), 9 hr” value (from here on “590 nm absorbance normalized … 9 hr”) was determined as 4.21; the “590 nm absorbance normalized to zero hour (substrate use), 10 hr” value (shortened to “590 nm absorbance normalized … 10 hr”) turned out to be 4.43; the “590 nm absorbance normalized to zero hour (substrate use), 11 hr” value (“590 nm absorbance normalized … 11 hr” for short) came to 5.05.

On to `O=C(CO)[C@@H](O)[C@H](O)[C@H](O)CO` [D-Fructose], for which, under setting [2], the “590 nm absorbance normalized to zero hour (substrate use), 1 hr” value is listed as 2.31; the “590 nm absorbance normalized … 2 hr” value stood at 2.22; the “590 nm absorbance normalized … 3 hr” value stood at 1.77; the “590 nm absorbance normalized … 4 hr” value is 2.00. Also, under setting [2], the “590 nm absorbance normalized … 6 hr” value turned out to be 1.51; the “590 nm absorbance normalized … 8 hr” value came out at 3.38; the “590 nm absorbance normalized … 9 hr” value was determined as 4.01; the “590 nm absorbance normalized … 10 hr” value is reported as 3.99. For the same compound, the “590 nm absorbance normalized … 11 hr” value under setting [2] came out at 4.24. Further, the “Substrate use, 590 nm absorbance normalized to zero hour, 1 hr” value (Control (uninfected) NHBE cells, Biolog PMM2, 1 hr) was determined as 2.31. Under “Control (uninfected) NHBE cells, Biolog PMM2, 5 hr”, the “Substrate use, 590 nm absorbance normalized to zero hour, 5 hr” value amounted to 2.59. Also, the “Substrate use, 590 nm absorbance normalized to zero hour, 7 hr” value (Control (uninfected) NHBE cells, Biolog PMM2, 7 hr) is reported as 3.18. In addition, under setting [3], the “590 nm absorbance normalized to zero hour (substrate use), 1 hr” value was 0.44; the “590 nm absorbance normalized … 2 hr” value was determined as 0.58; the “590 nm absorbance normalized … 3 hr” value stood at 0.71; the “590 nm absorbance normalized … 4 hr” value was found to be 0.79. Further, under setting [3], the “590 nm absorbance normalized to zero hour (substrate use), 5 hr” value was 1.00; the “590 nm absorbance normalized … 6 hr” value worked out at 1.09; the “590 nm absorbance normalized to zero hour (substrate use), 7 hr” value is 1.17; the “590 nm absorbance normalized … 8 hr” value was 1.26. For the same compound, under setting [3], the “590 nm absorbance normalized … 9 hr” value is listed as 1.43; the “590 nm absorbance normalized … 10 hr” value stood at 1.52; the “590 nm absorbance normalized … 11 hr” value is on record as 1.70. Moreover, under setting [1], the “590 nm absorbance normalized to zero hour (substrate use), 1 hr” value was found to be 0.44; the “590 nm absorbance normalized … 2 hr” value was 0.58; the “590 nm absorbance normalized … 3 hr” value is 0.71; the “590 nm absorbance normalized … 4 hr” value came out at 0.79. In addition, under setting [1], the “590 nm absorbance normalized to zero hour (substrate use), 5 hr” value came to 1.00; the “590 nm absorbance normalized … 6 hr” value was found to be 1.09; the “590 nm absorbance normalized to zero hour (substrate use), 7 hr” value is given as 1.17; the “590 nm absorbance normalized … 8 hr” value came out at 1.26. For the same compound, under setting [1], the “590 nm absorbance normalized … 9 hr” value is recorded as 1.43; the “590 nm absorbance normalized … 10 hr” value was 1.52; the “590 nm absorbance normalized … 11 hr” value came to 1.70.

(Values after patent US11083725B2 (priority 2014, dated 2021).)
